How the values were obtained:
peroxidation = details: literature statement; cited from earlier work
[1] = test system: lipid peroxidation (synaptosomal membrane fraction, Fenton's reagent); assay: In vitro inhibition of lipid peroxidation, thiobarbituric acid test; assay type: biochemical; details: 30 min at 37° C.
[2] = test system: LDL, isolated from human whole blood; assay: In vitro inhibition of LDL oxidation (Esterbauer et al), CuSO4-induced; details: 5 μmol test compound, 10 μmol CuSO4
estrogen receptor = target: T1, estrogen receptor (Oryctolagus cuniculus, UniProt G1SML6); assay: Estrogen receptor binding, competitive with 3H-ethinyl estradiol in uterine cytosol; details: RBA relative to 17β-estradiol, infantile rabbit uterine cytosol, 0° C.
T1 construct: in uterine cytosol of the infantile rabbit; from tissue; host or cells: uterine cytosol of infantile rabbit
T1 sequence (G1SML6 1-598): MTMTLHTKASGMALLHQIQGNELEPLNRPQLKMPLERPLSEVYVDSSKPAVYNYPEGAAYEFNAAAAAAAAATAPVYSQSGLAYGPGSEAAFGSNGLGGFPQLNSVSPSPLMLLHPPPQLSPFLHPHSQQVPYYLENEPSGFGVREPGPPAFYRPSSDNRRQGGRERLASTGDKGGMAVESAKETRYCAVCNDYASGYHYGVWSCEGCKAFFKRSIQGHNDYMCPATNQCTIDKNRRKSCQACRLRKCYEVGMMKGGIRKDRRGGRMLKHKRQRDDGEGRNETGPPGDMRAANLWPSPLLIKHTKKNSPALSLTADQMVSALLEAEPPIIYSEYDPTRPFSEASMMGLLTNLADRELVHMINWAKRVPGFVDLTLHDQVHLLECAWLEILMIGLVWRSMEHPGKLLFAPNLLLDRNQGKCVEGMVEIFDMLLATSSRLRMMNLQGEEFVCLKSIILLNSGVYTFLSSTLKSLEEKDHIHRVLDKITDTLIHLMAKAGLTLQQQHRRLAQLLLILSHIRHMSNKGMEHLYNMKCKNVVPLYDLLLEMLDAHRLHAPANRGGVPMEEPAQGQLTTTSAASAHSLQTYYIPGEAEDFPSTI
Experimental: Statements about estrogen affinity are made by measuring the estrogen receptor binding.
Measuring the estrogen receptor binding is done by competitive binding of the ^3 H-labelled synthetic estrogen ethinyl estradiol and of the compounds to be tested in uterine cytosol of the infantile rabbit at 0° C. Reaction equilibrium and receptor saturation are the goal.
With the statement about the RBA values, the estrogen receptor affinity of the particular compound is characterized; taking into account certain prerequisites for in vitro investigations (such as a free 30H group), it is a measure for estrogen affinity (again, see Table 1).

Row | Compound | Inhibition of peroxidation in vitro and in vivo (peroxidation) | IC50 [1] [µM] | LDL oxidation inhibition (prolongation of the lag phase in min) [2] [min] | Relative binding affinity to estrogen receptor (estrogen receptor) [%]
1 | C[C@]12CC[C@@H]3c4cc(O)c(O)cc4CC[C@H]3[C@@H]1CC[C@@H]2O [2-hydroxyestradiol] | inhibit peroxidation in vitro and in vivo |  |  | 
2 | Vitamin E [reference compound] |  | 132 |  | 
3 | C[C@@]12CC[C@H]3c4ccc(O)cc4CC[C@@H]3[C@H]1CC[C@H]2O [ent-Estradiol] |  | 8.8 | 120 | 
4 | COc1cc2c(cc1O)[C@H]1CC[C@]3(C)[C@@H](O)CC[C@H]3[C@@H]1CC2 [2-Hydroxyestradiol-3-methyl ether] |  | 3.2 |  | 
5 | C[C@]12CC[C@@H]3c4ccc(O)cc4CC[C@H]3[C@@H]1C[C@@H](O)[C@@H]2O [Estriol, reference compound] | inhibit peroxidation in vitro and in vivo | 122 | 45 | 10.3
6 | C[C@]12CC[C@@H]3c4ccc(O)cc4CC[C@H]3[C@@H]1CC[C@@]21CO1 [3-Hydroxy-1,3,5(10)-estratriene-17S-spirooxirane] |  | 4.11 | 170 | 
7 | C[C@]12CC[C@@H]3c4ccc(O)cc4C=C[C@H]3[C@@H]1C[C@@H](O)[C@@H]2O [6-Dehydroestriol] |  | 45.6 |  | 7.9
8 | C[C@]12CC[C@@H]3c4ccc(O)cc4CC[C@H]3[C@@H]1CC[C@@H]2O [17β-Estradiol, reference compound] | inhibit peroxidation in vitro and in vivo | 12.4 | 110 | 
9 | C[C@]12CCC3=C(CCc4cc(O)ccc43)[C@]13C[C@@H]3C[C@@H]2O [14β,15β-Methylene-8 dehydroestradiol, 14β,15β-methylene-8-dehydroestradiol] |  | 1.9 |  | 
10 | C[C@]12CCC3=C(CCc4cc(O)ccc43)[C@@H]1CC[C@@H]2O [8-Dehydroestradiol] |  | 1 | 120 | 59.6
11 | C[C@]12CCc3c(ccc4cc(O)ccc34)[C@@H]1CC[C@H]2O [6,8-Didehydro-17α-estradiol] |  | 5.1 |  | 
12 | C[C@]12CCC3=C(CCc4cc(O)ccc43)[C@@H]1CC[C@H]2O [8-Dehydro-17α-estradiol] |  | 4.1 |  | 
13 | C[C@]12CCC3=C(CCc4cc(O)ccc43)[C@@]13C[C@H]3C[C@@H]2O [14α,15α-Methylene-8-dehydroestradiol] |  | 0.9 |  | 
14 | CC(CO)[C@H]1CC[C@H]2[C@@H]3CCc4cc(O)ccc4[C@H]3CC[C@]12C (stereo partly shown) [20-hydroxymethyl-3-hydroxy-19-norpregna-1,3,5(10)-triene] |  | 14.4 |  | 22.5
15 | C[C@]12CC=C3c4ccc(O)cc4CC[C@H]3[C@@H]1CC[C@@]21CO1 [3-Hydroxy-1,3,5(10),9(11)-estratetraene-17S-spirooxirane] |  | 0.81 | 210 | 
16 | Cc1c(C)c2c(c(C)c1O)CCC(C)(CN1CCN(c3cc(N4CCCC4)nc(N4CCCC4)n3)CC1)O2 (stereo not shown) [Compound U-78517F, reference compound] |  | 1.8 | 70 | 
17 | C[C@]12CC[C@@H]3c4ccc(O)cc4CC[C@H]3[C@@]13C[C@H]3C[C@@H]2O [14α,15α-Methylene estradiol] |  | 5 to 10 |  | 
18 | C[C@]12CC=C3c4ccc(O)cc4CC[C@H]3[C@@H]1C[C@@H](O)[C@@H]2O [9(11)-dehydroestriol] |  | 10.6 |  | 7.5
19 | C[C@]12CC[C@@H]3c4ccc(O)cc4CC[C@H]3[C@@H]1CC[C@H]2O [17α-Estradiol] |  | 8.9 |  | 
20 | C[C@]12CC[C@@H]3c4ccc(O)cc4CC[C@H]3[C@@H]1CCC2=O [estrone] | inhibit peroxidation in vitro and in vivo |  |  | 

— patent US6172056A, “Pharmaceutical compositions and method for prophylaxis and therapy of radical-mediated cell damage” (Jenapharm GmbH & Co. KG, priority 1993, dated 2001)
